Consider one molecule from patent US20160264593A1 (priority 2013, published 2016).

Molecules are shown by their SMILES.

This series can be described thus: Pharmacokinetic study of 157 (and metabolite endothal) in SD rats, iv and po; plasma, liver, brain. It counts as in vivo. The note with it: for endothal detectable in brain samples: after single iv 157 at 1.5 mg/kg; for Cmax: female, rat, in vivo, iv. On the procedure:
The blood, liver and brain tissue samples were collected at predetermined times from rats. […] Compound were diluted shortly before use in 4% sodium bicarbonate for sterile injection (this is the standard pediatric solution of NaHCO3 with a pH of about 8.5).
Compound 153 was freshly prepared by diluting the drugs shortly before use in 4% sodium bicarbonate for sterile injection (this is the standard pediatric solution of NaHCO3 with a pH of about 8.5). The final concentrations of 153 solutions were 0.25 mg/mL. The 153 solutions were administered via iv or po route at dose volume of 5 ml/kg according to the latest body weight. Compound 157 was freshly prepared by diluting the drugs shortly before use in 4% sodium bicarbonate for sterile injection (this is the standard pediatric solution of NaHCO3 with a pH of about 8.5). The final concentrations of […] solutions were 0.3 mg/mL. The 157 solutions were administered via iv or po route at dose volume of 5 ml/kg according to the latest body weight.
Twelve (12) female SD rats per group were dosed by iv with 153 or 157. The rats were fasted overnight prior to dosing, with free access to water. Foods were withheld for 2 hours post-dose. Blood, liver and brain tissue samples in two animals each group were collected at each time point, within 10% of the scheduled time for each time point. Two extra animals were used for analytic method development.
Blood (>0.3 mL) were collected via aorta abdominalis in anaesthetic animals into tubes containing heparin at 15 min, 1, 2, 6, 10 and 24 hours after iv administration. Liver and brain tissues were collected immediately after animal death. The liver and brain tissues were excised and rinsed with cold saline to avoid blood residual. Upon collection, each sample was placed on ice and the blood samples were subsequently centrifuged (4° C., 11000 rpm, 5 min) to separate plasma. The obtained plasma, liver and brain tissue samples were stored at −70° C. until LC-MS/MS analysis.
Two (2) female SD rats per group were dosed by po with 153 or 157. The rats were fasted overnight prior to dosing, with free access to water. Foods were withheld for 2 hours post-dose. Blood samples (>0.3 mL) were collected via aorta abdominalis in anaesthetic animals into tubes containing heparin at 30 min, 1, 2, 6, 10 and 24 hours after po administration.
To each sample, 30 μL IS-D (for blank samples, 20 μL acetonitrile:water (1:1) was added) and 300 μl acetonitrile was added. The sample mixture was vortexed for approximately 3 min. After centrifugation at 10000 rpm for 5 min at 4° C., 100 μL of the upper layer was transferred to a new tube and added 200 μL 0.4% formic acid in water (pH6.0). The mixture was vortexed for approximately 3 min before injected onto the LC/MS/MS system for analysis.
On the day of the assay, the frozen liver and brain samples were thawed unassisted at room temperature. An about 200 mg weighed sample of each thawed tissue was placed into a plastic tube with water (0.6 mL) to facilitate homogenization. Tissue processing was conducted using a homogenizer for approximately 1 min, 100 μl homogenate was transferred into a fresh Eppendorf tube. To each tube, 50 μL IS-D was added and mixed. Then 500 μl acetonitrile was added and the sample mixture was vortexed for approximately 3 min. After centrifugation at 10000 rpm for 5 min at 4° C., 100 μL of the upper layer was transferred to a new tube and evaporate the supernatant to dryness at 35° C. Reconstitute the residue with 200 μL of 0.4% formic acid in water (pH 6.0), and vortex for 3 min, submit for LC-MS/MS analysis.
Frozen unknown plasma samples were completely thawed at room temperature and vortexed thoroughly. With a pipette, 50 μL of plasma was transferred into a 2.0 mL Eppendorf tube. 50 μL of 0.1N HCl and 800 μL ethyl acetate were added into each sample. The sample mixture was vortexed for approximately 3 min.

In the case of `O=C(O)C1C2CCC(O2)C1C(=O)O` (stereo not shown) [Endothal, 7-oxabicyclo[2.2.1]heptane-2,3-dicarboxylic acid], the Endothal plasma concentration result is on record as “BLQ” (after iv 157, 10 hr, Rat 1); “BLQ” (after iv 157, 10 hr, Rat 2); “BLQ” (after iv 157, 24 hr, Rat 1); “BLQ” (after iv 157, 24 hr, Rat 2); “BLQ” (after po 157, 10 hr, Rat 1); “BLQ” (after po 157, 10 hr, Rat 2). Besides, the “endothal detectable in brain samples” value (1.5 mg/kg) is given as “undetectable” and the “endothal detectable in brain samples” value (listed as endothal, 1.5 mg/kg) is listed as “not detectable”. Further, the Cmax by setting is: (SD, 1.5 mg/kg) 3720 ng/g; (Sprague-Dawley (SD)) 3720 ng/g.

One may read the Cmax as the highest concentration seen after dosing.
